Results on 24 compounds are retold here after patent US20110207784A1, “OXADIAZOLE-2-OXIDES AS ANTISCHISTOSOMAL AGENTS” (THE UNITED STATES OF AMERICA, AS REPRESENTED BY THE …, priority 2008, published 2011).

One may read the IC50 as the concentration at which inhibition is half-maximal.

Sequence of Recombinant thioredoxin glutathione reductase (TGR) (Q962Y6 1-598): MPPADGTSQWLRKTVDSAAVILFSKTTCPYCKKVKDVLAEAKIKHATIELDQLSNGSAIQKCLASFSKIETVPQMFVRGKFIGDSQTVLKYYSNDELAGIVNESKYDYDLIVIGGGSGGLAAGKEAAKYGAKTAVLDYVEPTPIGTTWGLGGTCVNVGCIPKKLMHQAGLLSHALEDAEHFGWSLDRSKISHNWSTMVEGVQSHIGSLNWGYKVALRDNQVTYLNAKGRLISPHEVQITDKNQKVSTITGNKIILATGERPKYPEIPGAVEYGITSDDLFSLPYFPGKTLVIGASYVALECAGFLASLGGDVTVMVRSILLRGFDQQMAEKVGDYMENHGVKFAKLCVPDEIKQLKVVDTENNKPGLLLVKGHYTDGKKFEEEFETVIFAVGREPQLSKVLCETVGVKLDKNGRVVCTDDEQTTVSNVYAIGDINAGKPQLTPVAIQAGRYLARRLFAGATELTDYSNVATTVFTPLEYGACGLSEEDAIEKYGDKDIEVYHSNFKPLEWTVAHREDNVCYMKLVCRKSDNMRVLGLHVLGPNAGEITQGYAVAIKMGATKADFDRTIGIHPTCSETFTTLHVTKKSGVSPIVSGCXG

The first assay concerns the target Recombinant thioredoxin glutathione reductase (TGR) (Schistosoma mansoni, UniProt Q962Y6). Put plainly: biochemical. It counts as biochemical, S. mansoni.
Details: not given
Turning to `Cc1c(-c2ccccc2)no[n+]1[O-]` [Compound 50], the “TGR inhibition, potency in words” value is “less potent than compounds 52, 51, and 56”.
Turning to `N#Cc1c(-c2ccc([N+](=O)[O-])cc2)no[n+]1[O-]` [Compound 25, 3-cyano-4-(4-nitrophenyl)-1,2,5-oxadiazole-2-oxide], the 50% inhibitory concentration (IC50) was found to be 2.2 µM.

Still in this assay, the particulars now being: read-out: TGR IC50.
With `N#Cc1c(-c2ccc(F)c(Br)c2)no[n+]1[O-]` [Compound 35, 4-(3-bromo-4-fluorophenyl)-3-cyano-1,2,5-oxadiazole-2-oxide], the IC50 came to 2.8 µM.
Same read-out and setting: the result for `N#Cc1c(-c2ccccc2)no[n+]1[O-]` [Compound 49, reference compound] reads 6.3 µM; that for `N#Cc1c(-c2ccc(O)cc2)no[n+]1[O-]` [Compound 48, 3-cyano-4-(4-hydroxyphenyl)-1,2,5-oxadiazole-2-oxide], 17.9 µM; that for `Cc1ccc(-c2no[n+]([O-])c2C#N)cc1` [Compound 27, 3-cyano-4-p-tolyl-1,2,5-oxadiazole-2-oxide], 11.2 µM.
Still for that read-out and setting: the result for `COc1ccccc1-c1no[n+]([O-])c1C#N` [Compound 34, 3-cyano-4-(2-methoxyphenyl)-1,2,5-oxadiazole-2-oxide] reads 7.9 µM; that for `N#Cc1c(-c2ccc(Cl)cc2)no[n+]1[O-]` [Compound 22, 4-(4-chlorophenyl)-3-cyano-1,2,5-oxadiazole-2-oxide], 4 µM.
Still for that read-out and setting: the result for `[O-][n+]1onc(-c2ccccc2)c1CO` [Compound 51] reads 11.2 µM.
Consider `N#Cc1c(-c2cc(F)cc(-c3no[n+]([O-])c3C#N)c2)no[n+]1[O-]` [Compound 45, 4,4′-(5-fluoro-1,3-phenylene)bis(3-cyano-1,2,5-oxadiazole-2-oxide)], for which the IC50 was determined as 0.48 µM.
Take `COc1cccc(-c2no[n+]([O-])c2C#N)c1` [Compound 33, 3-cyano-4-(3-methoxyphenyl)-1,2,5-oxadiazole-2-oxide]: the IC50 was determined as 8.9 µM.
The same measure, in the same setting: the result for `N#Cc1c(-c2ccc(C(F)(F)F)cc2)no[n+]1[O-]` [Compound 24, 3-cyano-4-(4-(trifluoromethyl)phenyl)-1,2,5-oxadiazole-2-oxide] reads 7.1 µM; that for `N#Cc1c(-c2cccc(C(F)(F)F)c2)no[n+]1[O-]` [Compound 32, 3-cyano-4-(3-(trifluoromethyl)phenyl)-1,2,5-oxadiazole-2-oxide], 2.5 µM; that for `N#Cc1c(-c2ccc(Br)cc2)no[n+]1[O-]` [Compound 23, 4-(4-bromophenyl)-3-cyano-1,2,5-oxadiazole-2-oxide], 3.5 µM.
Still for that read-out and setting: the result for `N#Cc1c(-c2cccc(-c3no[n+]([O-])c3C#N)c2)no[n+]1[O-]` [Compound 43, 4,4′-(1,3-phenylene)bis(3-cyano-1,2,5-oxadiazole-2-oxide)] reads 3.5 µM.
Same read-out and setting: the result for `COc1ccc(-c2no[n+]([O-])c2C#N)cc1` [Compound 26, 3-cyano-4-(4-methoxyphenyl)-1,2,5-oxadiazole-2-oxide] reads 10 µM.
On to `O=Cc1c(-c2ccccc2)no[n+]1[O-]` [Compound 52], for which the IC50 is 0.11 µM.
The same measure, in the same setting: the result for `N#Cc1c(-c2cccc(Br)c2)no[n+]1[O-]` [Compound 31, 4-(3-bromophenyl)-3-cyano-1,2,5-oxadiazole-2-oxide] reads 2.8 µM; that for `N#Cc1c(-c2cccc(O)c2)no[n+]1[O-]` [Compound 46, 3-cyano-4-(3-hydroxyphenyl)-1,2,5-oxadiazole-2-oxide], 7.1 µM.
As to `N#Cc1c(-c2ccc(-c3ccccc3)cc2)no[n+]1[O-]` [Compound 28, 4-(biphenyl-4-yl)-3-cyano-1,2,5-oxadiazole-2-oxide], the IC50 is 15.8 µM.
On the same count and under the same terms, the result for `N#Cc1c(-c2cccc([N+](=O)[O-])c2)no[n+]1[O-]` [Compound 55, 3-cyano-4-(3-nitrophenyl)-1,2,5-oxadiazole-2-oxide] reads 2.2 µM; that for `COc1cc(-c2no[n+]([O-])c2C#N)cc(OC)c1OC` [Compound 38, 3-cyano-4-(3,4,5-trimethoxyphenyl)-1,2,5-oxadiazole-2-oxide], 8.9 µM; that for `N#Cc1c(-c2cccc(Cl)c2)no[n+]1[O-]` [Compound 30, 4-(3-chlorophenyl)-3-cyano-1,2,5-oxadiazole-2-oxide], 3.5 µM.
The same measure, in the same setting: the result for `N#Cc1c(-c2ccc(F)cc2)no[n+]1[O-]` [Compound 21, 3-cyano-4-(4-fluorophenyl)-1,2,5-oxadiazole-2-oxide] reads 7.9 µM.

Another assay deals with freshly perfused S. mansoni worms. Put plainly: ex vivo parasite killing assay.
Details: not given
It counts as cell-based.
For the compound `N#Cc1c(-c2cc(F)cc(-c3no[n+]([O-])c3C#N)c2)no[n+]1[O-]` [Compound 45, 4,4′-(5-fluoro-1,3-phenylene)bis(3-cyano-1,2,5-oxadiazole-2-oxide)], the “worms judged to be dead” value was determined as 100%.
Still for that read-out and setting: the result for `N#Cc1c(-c2cccc(-c3no[n+]([O-])c3C#N)c2)no[n+]1[O-]` [Compound 43, 4,4′-(1,3-phenylene)bis(3-cyano-1,2,5-oxadiazole-2-oxide)] reads 100%.

Still in this assay, the particulars now being: compound at 10 μM, RPMI 1640, 10% FCS, pH 7.
As to `N#Cc1c(-c2ccccc2)no[n+]1[O-]` [Compound 49, reference compound], the “Approximate ET100 (time for 100% of the worms to die)” value was 16 to 18 h.
